Source: ChEMBL document CHEMBL1201862, “PubChem BioAssay data set” (2004)
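Assay format: 96-well plates, 48-hour exposure. Here, GI50 denotes the concentration required for 50% inhibition of growth.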 Active and inactive are the calls of the source. Rule as the data show it: active = GI50 up to about 1.1 µM and inactive = higher.

Experiments:
Experiment in all cases: inhibition of tumour cell growth, NCI panel, 48 h
[1] = test system: SNB-78
[2] = test system: ACHN
[3] = test system: UACC-62
[4] = test system: OVCAR-4
[5] = test system: HOP-92
[6] = test system: SK-MEL-5
[7] = test system: A549
[8] = test system: SF-268
[9] = test system: M19-MEL
[10] = test system: HCT-15
[11] = test system: COLO 205
[12] = test system: HL-60
[13] = test system: HCT-116
[14] = test system: SF-295
[15] = test system: 786-0
[16] = test system: OVCAR-3
[17] = test system: HOP-18
[18] = test system: DMS-273
[19] = test system: UACC-257
[20] = test system: SN12C
[21] = test system: OVCAR-5
[22] = test system: XF498
[23] = test system: RXF 631
[24] = test system: U-251
[25] = test system: HT-29
[26] = test system: EKVX
[27] = test system: NCI-H23
[28] = test system: RPMI-8226
[29] = test system: TK-10
[30] = test system: CCRF-CEM
[31] = test system: DMS-114
[32] = test system: MOLT-4
[33] = test system: SNB-75
[34] = test system: DLD-1
[35] = test system: SF-539
[36] = test system: HOP-62
[37] = test system: SK-OV-3
[38] = test system: SNB-19
[39] = test system: NCI-H226
[40] = test system: KM-20L2
[41] = test system: OVCAR-8
[42] = test system: Malme-3M
[43] = test system: SK-MEL-28
[44] = test system: NCI-H460
[45] = test system: SW-620
[46] = test system: NCI-H522
[47] = test system: LXFL 529
[48] = test system: HCC 2998
[49] = test system: SK-MEL-2
[50] = test system: M14
[51] = test system: UO-31
[52] = test system: A498
[53] = test system: CAKI-1
[54] = test system: K562
[55] = test system: IGROV-1
[56] = test system: KM12
[57] = test system: LOX IMVI
[58] = test system: RXF 393
[59] = test system: SR

Nn1c(-c2ccccc2)nc2ccc(Br)cc2c1=O
GI50 [1]: 85.7 µM (inactive) | GI50 [2]: 34.8 µM (inactive) | GI50 [3]: 45.9 µM (inactive) | GI50 [4]: 28.6 µM (inactive) | GI50 [5]: 12.8 µM (inactive) | GI50 [6]: 53.1 µM (inactive) | GI50 [7]: > 100 µM (inactive) | GI50 [8]: 30.7 µM (inactive) | GI50 [9]: 89.5 µM (inactive) | GI50 [10]: 40.8 µM | GI50 [11]: 32.1 µM (inactive) | GI50 [12]: 15.6 µM (inactive) | GI50 [13]: 35.3 µM (inactive) | GI50 [14]: 58.1 µM (inactive) | GI50 [15]: 47.2 µM (inactive) | GI50 [16]: 24 µM (inactive) | GI50 [17]: 17.5 µM (inactive) | GI50 [18]: 40.2 µM (inactive) | GI50 [19]: > 100 µM (inactive) | GI50 [20]: 42.7 µM (inactive) | GI50 [21]: > 100 µM (inactive) | GI50 [22]: 13.7 µM (inactive) | GI50 [23]: 59 µM (inactive) | GI50 [24]: 41.4 µM (inactive) | GI50 [25]: 61 µM (inactive) | GI50 [26]: 31.9 µM (inactive) | GI50 [27]: 81.5 µM (inactive) | GI50 [28]: 30.9 µM (inactive) | GI50 [29]: > 100 µM (inactive) | GI50 [30]: 20.2 µM (inactive) | GI50 [31]: 31.8 µM (inactive) | GI50 [32]: 17.9 µM (inactive) | GI50 [33]: > 100 µM (inactive) | GI50 [34]: 35.3 µM (inactive) | GI50 [35]: 53.8 µM (inactive) | GI50 [36]: > 10 µM (inactive) | GI50 [37]: 61.5 µM (inactive) | GI50 [38]: 95.3 µM (inactive) | GI50 [39]: 57.5 µM (inactive) | GI50 [40]: > 100 µM (inactive) | GI50 [41]: 35.4 µM (inactive) | GI50 [42]: 15.1 µM (inactive) | GI50 [43]: > 100 µM (inactive) | GI50 [44]: 61.4 µM (inactive) | GI50 [45]: 46.6 µM (inactive) | GI50 [46]: 33.7 µM (inactive) | GI50 [47]: 34 µM (inactive) | GI50 [48]: 62.7 µM (inactive) | GI50 [49]: 57.1 µM (inactive) | GI50 [50]: 54.1 µM (inactive) | GI50 [51]: 24.4 µM (inactive) | GI50 [52]: 70.5 µM (inactive) | GI50 [53]: 38.5 µM (inactive) | GI50 [54]: 29.3 µM (inactive) | GI50 [55]: 44.8 µM (inactive) | GI50 [56]: 86.1 µM (inactive)

CCCCN(CCCC)CCCCNc1c(C)cnc2cc(Cl)ccc12
GI50 [57]: 14.2 µM (inactive) | GI50 [1]: 55.3 µM (inactive) | GI50 [2]: 24.3 µM (inactive) | GI50 [4]: 49.2 µM (inactive) | GI50 [5]: 13.5 µM (inactive) | GI50 [7]: 30.9 µM (inactive) | GI50 [8]: 21.6 µM (inactive) | GI50 [9]: 32.5 µM (inactive) | GI50 [10]: 29.9 µM | GI50 [11]: 23.3 µM (inactive) | GI50 [13]: 11.1 µM (inactive) | GI50 [14]: 19.1 µM (inactive) | GI50 [15]: 14 µM (inactive) | GI50 [16]: 30.2 µM (inactive) | GI50 [17]: 23 µM (inactive) | GI50 [19]: 14.6 µM (inactive) | GI50 [20]: 30.6 µM (inactive) | GI50 [21]: 2.79 µM (inactive) | GI50 [22]: 14.4 µM (inactive) | GI50 [23]: 13.7 µM (inactive) | GI50 [24]: 28.6 µM (inactive) | GI50 [25]: 14.9 µM (inactive) | GI50 [26]: 20 µM (inactive) | GI50 [27]: 38.7 µM (inactive) | GI50 [29]: 34.4 µM (inactive) | GI50 [30]: 49.1 µM (inactive) | GI50 [31]: 15.9 µM (inactive) | GI50 [32]: 25.9 µM (inactive) | GI50 [35]: 13.4 µM (inactive) | GI50 [36]: 21.3 µM (inactive) | GI50 [38]: 52.5 µM (inactive) | GI50 [39]: 16.4 µM (inactive) | GI50 [40]: 11.3 µM (inactive) | GI50 [41]: 49.4 µM (inactive) | GI50 [42]: 21 µM (inactive) | GI50 [43]: 17.2 µM (inactive) | GI50 [44]: 30.9 µM (inactive) | GI50 [45]: 20.9 µM (inactive) | GI50 [46]: 15.2 µM (inactive) | GI50 [47]: 31 µM (inactive) | GI50 [48]: 14.5 µM (inactive) | GI50 [49]: 21.2 µM (inactive) | GI50 [50]: 1.94 µM (inactive) | GI50 [58]: 13.3 µM (inactive) | GI50 [51]: 9.35 µM (inactive) | GI50 [52]: 23.6 µM (inactive) | GI50 [54]: 10.3 µM (inactive) | GI50 [56]: 36.6 µM (inactive)

C[Si](C)(C)/N=C1\N2C(=NC1(C(F)(F)F)C(F)(F)F)Sc1ccccc12
GI50 [57]: > 50 µM (inactive) | GI50 [1]: > 50 µM (inactive) | GI50 [2]: > 50 µM (inactive) | GI50 [3]: > 50 µM (inactive) | GI50 [4]: > 50 µM (inactive) | GI50 [5]: 29.9 µM (inactive) | GI50 [6]: > 50 µM (inactive) | GI50 [7]: > 50 µM (inactive) | GI50 [8]: > 50 µM (inactive) | GI50 [9]: > 50 µM (inactive) | GI50 [10]: > 50 µM | GI50 [11]: > 50 µM (inactive) | GI50 [12]: > 50 µM (inactive) | GI50 [13]: > 50 µM (inactive) | GI50 [14]: > 50 µM (inactive) | GI50 [15]: > 50 µM (inactive) | GI50 [16]: > 50 µM (inactive) | GI50 [17]: > 50 µM (inactive) | GI50 [18]: > 50 µM (inactive) | GI50 [19]: > 50 µM (inactive) | GI50 [20]: > 50 µM (inactive) | GI50 [21]: > 50 µM (inactive) | GI50 [22]: > 50 µM (inactive) | GI50 [23]: > 50 µM (inactive) | GI50 [24]: > 50 µM (inactive) | GI50 [25]: > 50 µM (inactive) | GI50 [26]: > 50 µM (inactive) | GI50 [27]: > 50 µM (inactive) | GI50 [28]: > 50 µM (inactive) | GI50 [29]: > 50 µM (inactive) | GI50 [30]: > 50 µM (inactive) | GI50 [31]: > 50 µM (inactive) | GI50 [32]: > 50 µM (inactive) | GI50 [33]: > 50 µM (inactive) | GI50 [34]: > 50 µM (inactive) | GI50 [59]: > 50 µM (inactive) | GI50 [35]: > 50 µM (inactive) | GI50 [36]: > 50 µM (inactive) | GI50 [37]: > 50 µM (inactive) | GI50 [38]: > 50 µM (inactive) | GI50 [39]: > 50 µM (inactive) | GI50 [40]: > 50 µM (inactive) | GI50 [41]: > 50 µM (inactive) | GI50 [42]: > 50 µM (inactive) | GI50 [44]: > 50 µM (inactive) | GI50 [45]: > 50 µM (inactive) | GI50 [46]: > 50 µM (inactive) | GI50 [47]: > 50 µM (inactive) | GI50 [48]: > 50 µM (inactive) | GI50 [49]: > 50 µM (inactive) | GI50 [50]: > 50 µM (inactive) | GI50 [58]: > 50 µM (inactive) | GI50 [51]: > 50 µM (inactive) | GI50 [52]: > 50 µM (inactive) | GI50 [53]: > 50 µM (inactive) | GI50 [54]: > 50 µM (inactive) | GI50 [55]: > 50 µM (inactive) | GI50 [56]: > 50 µM (inactive)
